Data published in patent US6737383B1, “Herbicidal oxadiazolidines” (priority 1999, dated 2004).

Tests used:
bedstraw = assay: Test B pre/postemergence bedstraw; assay type: in vivo, Galium aparine
Procedure, shortened: (§1)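 Herbicidal effect was estimated by eye on a ten-point control scale after plants spent twelve to sixteen days in a greenhouse following soil or foliar treatment. Foliar sprays targeted plants at one to four leaves; all doses were formulated in a non-phytotoxic solvent with surfactant.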

blackgrass = assay: Test B pre/postemergence blackgrass; assay type: in vivo, Alopecurus myosuroides
Procedure, shortened: as §1

surinam grass = assay: Test B pre/postemergence surinam grass; assay type: in vivo, Brachiaria decumbens
Procedure, shortened: as §1

cocklebur = assay: Test B pre/postemergence cocklebur; assay type: in vivo, Xanthium strumarium
Procedure, shortened: as §1

corn = assay: Test B pre/postemergence corn; assay type: in vivo, Zea mays
Procedure, shortened: as §1

crabgrass = assay: Test B pre/postemergence crabgrass; assay type: in vivo, Digitaria sanguinalis
Procedure, shortened: as §1

giant foxtail = assay: Test B pre/postemergence giant foxtail; assay type: in vivo, Setaria faberii
Procedure, shortened: as §1

morningglory = assay: Test B pre/postemergence morningglory; assay type: in vivo, Ipomoea hederacea
Procedure, shortened: as §1

pigweed = assay: Test B pre/postemergence pigweed; assay type: in vivo, Amaranthus retroflexus
Procedure, shortened: as §1

rape = assay: Test B pre/postemergence rape; assay type: in vivo, Brassica napus
Procedure, shortened: as §1

sugar beet = assay: Test B pre/postemergence sugar beet; assay type: in vivo, Beta vulgaris
Procedure, shortened: as §1

wheat = assay: Test B pre/postemergence wheat; assay type: in vivo, Triticum aestivum
Procedure, shortened: as §1

wild oat = assay: Test B pre/postemergence wild oat; assay type: in vivo, Avena fatua
Procedure, shortened: as §1

purple nutsedge = assay: Test B pre/postemergence purple nutsedge; assay type: in vivo, Cyperus rotundus
Procedure, shortened: as §1

rice = assay: Test B flood test rice; assay type: in vivo, Oryza sativa
Procedure, shortened: (§2)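 Flood test on plants grown to the 2-leaf stage; treated plants kept in greenhouse twelve to sixteen days, then visually rated against controls on a 0 (no effect) to 10 (complete control) scale.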

bamyardgrass = assay: Test B flood test barnyardgrass; assay type: in vivo, Echinochloa crus-galli
Procedure, shortened: as §2

[1] = Postemergence, Rate 125 g/ha, scale 0 to 10, 0 is no effect, 10 is complete control
[2] = Postemergence, Rate 500 g/ha, scale of 0 to 10 where 0 is no effect and 10 is complete control
[3] = Preemergence, Rate 62 g/ha, scale 0 to 10 (0 no effect, 10 complete control)
[4] = Preemergence, Rate 125 g/ha, scale of 0 to 10 where 0 is no effect and 10 is complete control
[5] = Rate 62 g/ha, Postemergence, scale of 0 to 10 where 0 is no effect and 10 is complete control
[6] = Postemergence, Rate 250 g/ha, scale 0 to 10, 0 is no effect, 10 is complete control
[7] = Preemergence, Rate 250 g/ha, scale of 0 to 10 where 0 is no effect and 10 is complete control
[8] = Preemergence, Rate 500 g/ha, scale 0 to 10, 0 is no effect, 10 is complete control
[9] = Preemergence, Rate 250 g/ha, scale 0 to 10, 0 is no effect, 10 is complete control
[10] = Rate 62 g/ha, flood test species, Pre-emergence, visual evaluation after twelve to sixteen days
[11] = Rate 125 g/ha, under heading Pre-emergence, flood test species, visual evaluation after twelve to sixteen days
[12] = Rate 250 g/ha, Pre-emergence, flood-test species, scale 0 to 10, 0 is no effect, 10 is complete control
[13] = Rate 500 g/ha, Pre-emergence, flood test species, scale 0 to 10 (0 no effect, 10 complete control)

CC(C)N(C(=O)n1oc(=O)n(CC2CCC2)c1=O)c1ccc(F)cc1 [Compound 403]
Plant response rating, Bedstraw (bedstraw; [1]): 2
Bedstraw plant response rating (bedstraw; [2]): 8
Plant response rating, Bedstraw (bedstraw; [3]): 0
Plant response rating, Bedstraw (bedstraw; [4]): 0
Bedstraw plant response rating (bedstraw; [5]): 0
Plant response rating, Blackgrass (blackgrass; [1]): 9
Plant response rating, Blackgrass (blackgrass; [6]): 10
Blackgrass plant response rating (blackgrass; [2]): 10
Plant response rating, Blackgrass (blackgrass; [3]): 2
Plant response rating, Blackgrass (blackgrass; [4]): 7
Blackgrass plant response rating (blackgrass; [7]): 7
Blackgrass plant response rating (blackgrass; [8]): 9
Blackgrass plant response rating (blackgrass; [5]): 6
Plant response rating, B. signalgrass (surinam grass; [1]): 2
Plant response rating, B. signalgrass (surinam grass; [6]): 3
B. signalgrass plant response rating (surinam grass; [2]): 6
Plant response rating, B. signalgrass (surinam grass; [3]): 3
Plant response rating, B. signalgrass (surinam grass; [4]): 4
B. signalgrass plant response rating (surinam grass; [7]): 5
B. signalgrass plant response rating (surinam grass; Preemergence, Rate 500 g/ha, scale of 0 to 10 where 0 is no effect and 10 is complete control): 7
B. signalgrass plant response rating (surinam grass; [5]): 0
Plant response rating, Cocklebur (cocklebur; [1]): 0
Plant response rating, Cocklebur (cocklebur; [6]): 0
Cocklebur plant response rating (cocklebur; [2]): 0
Plant response rating, Cocklebur (cocklebur; [3]): 0
Plant response rating, Cocklebur (cocklebur; [4]): 0
Cocklebur plant response rating (cocklebur; [9]): 0
Cocklebur plant response rating (cocklebur; [5]): 0
Plant response rating, Corn (corn; [1]): 0
Plant response rating, Corn (corn; [6]): 0
Corn plant response rating (corn; [2]): 0
Plant response rating, Corn (corn; [3]): 0
Plant response rating, Corn (corn; [4]): 2
Corn plant response rating (corn; [9]): 2
Corn plant response rating (corn; [8]): 6
Corn plant response rating (corn; [5]): 0
Plant response rating, Crabgrass (crabgrass; [1]): 3
Plant response rating, Crabgrass (crabgrass; [6]): 8
Crabgrass plant response rating (crabgrass; [2]): 9
Plant response rating, Crabgrass (crabgrass; [3]): 10
Plant response rating, Crabgrass (crabgrass; [4]): 10
Crabgrass plant response rating (crabgrass; [9]): 10
Crabgrass plant response rating (crabgrass; [8]): 10
Crabgrass plant response rating (crabgrass; [5]): 2
Plant response rating, Giant foxtail (giant foxtail; [1]): 3
Plant response rating, Giant foxtail (giant foxtail; [6]): 9
Giant foxtail plant response rating (giant foxtail; [2]): 9
Plant response rating, Giant foxtail (giant foxtail; [3]): 10
Plant response rating, Giant foxtail (giant foxtail; [4]): 10
Giant foxtail plant response rating (giant foxtail; [9]): 10
Giant foxtail plant response rating (giant foxtail; [8]): 10
Giant foxtail plant response rating (giant foxtail; [5]): 3
Plant response rating, Morningglory (morningglory; [6]): 8
Morningglory plant response rating (morningglory; [2]): 10
Plant response rating, Morningglory (morningglory; [3]): 0
Plant response rating, Morningglory (morningglory; [4]): 0
Morningglory plant response rating (morningglory; [9]): 0
Morningglory plant response rating (morningglory; [8]): 0
Morningglory plant response rating (morningglory; [5]): 2
Plant response rating, Redroot pigweed (pigweed; [6]): 1
Redroot pigweed plant response rating (pigweed; [2]): 2
Plant response rating, Redroot pigweed (pigweed; [3]): 0
Plant response rating, Redroot pigweed (pigweed; [4]): 4
Redroot pigweed plant response rating (pigweed; [9]): 9
Redroot pigweed plant response rating (pigweed; [8]): 9
Redroot pigweed plant response rating (pigweed; [5]): 0
Plant response rating, Rape (rape; [6]): 4
Rape plant response rating (rape; [2]): 7
Plant response rating, Rape (rape; [3]): 0
Plant response rating, Rape (rape; [4]): 1
Rape plant response rating (rape; [9]): 5
Rape plant response rating (rape; [8]): 7
Rape plant response rating (rape; [5]): 2
Plant response rating, Sugarbeets (sugar beet; [6]): 0
Sugarbeets plant response rating (sugar beet; [2]): 3
Plant response rating, Sugarbeets (sugar beet; [3]): 0
Plant response rating, Sugarbeets (sugar beet; [4]): 1
Sugarbeets plant response rating (sugar beet; [9]): 3
Sugarbeets plant response rating (sugar beet; [8]): 5
Sugarbeets plant response rating (sugar beet; [5]): 0
Wheat plant response rating (wheat; [2]): 4
Plant response rating, Wheat (wheat; [3]): 0
Plant response rating, Wheat (wheat; [4]): 0
Wheat plant response rating (wheat; [9]): 0
Wheat plant response rating (wheat; [8]): 0
Wheat plant response rating (wheat; [5]): 0
Wild oats plant response rating (wild oat; [2]): 5
Plant response rating, Wild oats (wild oat; [3]): 0
Plant response rating, Wild oats (wild oat; [4]): 4
Wild oats plant response rating (wild oat; [9]): 5
Wild oats plant response rating (wild oat; [8]): 8
Wild oats plant response rating (wild oat; [5]): 0
Plant response rating, Nutsedge (purple nutsedge; [6]): 0
Nutsedge plant response rating (purple nutsedge; [2]): 0
Plant response rating, Nutsedge (purple nutsedge; [3]): 0
Plant response rating, Nutsedge (purple nutsedge; [4]): 0
Nutsedge plant response rating (purple nutsedge; [9]): 0
Nutsedge plant response rating (purple nutsedge; [8]): 0
Nutsedge plant response rating (purple nutsedge; [5]): 0
Plant response rating, Rice (0 to 10 scale, 0 is no effect, 10 is complete control) (rice; [10]): 0
Rice plant response rating (0 to 10 scale, 0 is no effect, 10 is complete control) (rice; [11]): 0
Rice plant response rating (rice; [12]): 0
Rice plant response rating (rice; [13]): 0
Plant response rating, Barnyardgrass (0 to 10 scale, 0 is no effect, 10 is complete control) (bamyardgrass; [10]): 2
Barnyardgrass plant response rating (0 to 10 scale, 0 is no effect, 10 is complete control) (bamyardgrass; [11]): 4
Barnyardgrass plant response rating (bamyardgrass; [12]): 2
Barnyardgrass plant response rating (bamyardgrass; [13]): 7
